From paper PMC9494746 (Biochemistry, 2022)
Like-named read-outs stand apart in the source and are kept apart here. Values belong to the compound of their own block, whether it stands above or below them.

Experiments:
[1] = system: C[S+](CC[C@H](N)C(=O)[O-])C[C@H]1O[C@@H](n2cnc3c(N)ncnc32)[C@H](O)[C@@H]1O; assay: purified protein, by the assay type; type: biochemical, human; conditions: pH 7.5
[2] = system: C[S+](CC[C@H](N)C(=O)[O-])C[C@H]1O[C@@H](n2cnc3c(N)ncnc32)[C@H](O)[C@@H]1O; assay: Steady-state substrate specificity (peptide and nucleosome substrates), MTase-Glo; type: biochemical, human; conditions: other: WRAD2, eq 1, pH 7.5
[3] = target: T1, SET/WRAD2 complex (Homo sapiens, UniProt O14686); assay: Product and dead-end inhibitor studies, MTase-Glo; type: biochemical; design: key to inhibition pattern: C = competitive; NC = noncompetitive; UC = uncompetitive
T1 construct: expressing amino acids 5308-5537 of the hKMT2D catalytic SET domain; 6xHis + TEV site (N, cleaved yes); made in house; host or cells: KMT2D Win-SET: Sf21 (baculovirus); H3 peptides bought from Chinese Peptide Company
Procedure: (§1) SET domain activity was monitored with a quantitative endpoint assay determining AdoHcy production using MTase-Glo by Promega.[39] Assays were performed as time courses at room temperature with buffer constituents, 50 mM Tris, pH 7.5, 50 mM NaCl, 1 mM DTT, 1% DMSO, and 0.005% w/v Triton X-100 in deionized water. […] Addition of 1 μL of 0.5% v/v TFA was used to stop the methylation reaction at defined time points; 1 μL of 6× concentrated MTase-Glo reagent was added to each well and incubated at room temperature. After 30 min, 6 μL of the prefiltered MTase-Glo detection reagent was added and incubated for a further 30 min at room temperature. Luminescence was measured using an Envision 2101 Multilabel plate reader, and product concentrations were calculated using an AdoHcy standard curve. Steady-state rates were obtained by plotting AdoHcy production over time and normalized to SET domain concentration. Experiments were performed in triplicate and expressed as the mean ± SD. Data were analyzed using nonlinear regression in GraphPad Prism v9.1.
Steady-state rates were measured in substrate-inhibitor matrix experiments. Dead-end inhibitor experiments were performed with the second substrate fixed at KM, while product inhibitor experiments fixed the second substrate at KM or 20× KM. Assays using 20× KM AdoMet used a cofactor adjusted to pH 7.5. […] Steady-state rates were globally fitted to competitive, uncompetitive, and noncompetitive inhibition (eqs 6, 7, and 8, respectively).
Competitive inhibition [drawing 6] 6 Uncompetitive inhibition [drawing 7] 7 Noncompetitive inhibition [drawing 8] 8 Mixed inhibition [drawing 9] 9 where ν is the initial rate, Vmax is the maximum velocity of the uninhibited reaction, [S] is the substrate concentration of the varied substrate, [I] is the inhibitor concentration, KM is the Michaelis–Menten constant, and Ki is the inhibition constant. To resolve any ambiguities in assigning inhibition type, the mixed inhibition model was used (eq 9), to derive the value of α, which is a measure of competitive or uncompetitive nature.

[4] = target: T1, SET/WRAD2 complex; assay: Steady-state substrate specificity (peptide and nucleosome substrates), MTase-Glo; type: biochemical
Procedure: as §1
(§2) Steady-state rates were measured in substrate matrix experiments. Data were globally fitted to ternary Bi–Bi and Ping–Pong models to obtain kcat and KM parameters (eqs 1 and 2).
(§3) The ternary Bi–Bi model [drawing 1] 1 The Ping–Pong model [drawing 2] 2 where ν is the initial rate, Vmax is the maximum velocity, [A] is the concentration of the varied substrate, [B] the concentration of the fixed substrate, KM^A and KM^B are the Michaelis constants of the varied and fixed substrates, respectively, and Kd is the dissociation constant of the varied substrate.
Target sequence in this assay (Q15291 whole entry, the tested form may be a part): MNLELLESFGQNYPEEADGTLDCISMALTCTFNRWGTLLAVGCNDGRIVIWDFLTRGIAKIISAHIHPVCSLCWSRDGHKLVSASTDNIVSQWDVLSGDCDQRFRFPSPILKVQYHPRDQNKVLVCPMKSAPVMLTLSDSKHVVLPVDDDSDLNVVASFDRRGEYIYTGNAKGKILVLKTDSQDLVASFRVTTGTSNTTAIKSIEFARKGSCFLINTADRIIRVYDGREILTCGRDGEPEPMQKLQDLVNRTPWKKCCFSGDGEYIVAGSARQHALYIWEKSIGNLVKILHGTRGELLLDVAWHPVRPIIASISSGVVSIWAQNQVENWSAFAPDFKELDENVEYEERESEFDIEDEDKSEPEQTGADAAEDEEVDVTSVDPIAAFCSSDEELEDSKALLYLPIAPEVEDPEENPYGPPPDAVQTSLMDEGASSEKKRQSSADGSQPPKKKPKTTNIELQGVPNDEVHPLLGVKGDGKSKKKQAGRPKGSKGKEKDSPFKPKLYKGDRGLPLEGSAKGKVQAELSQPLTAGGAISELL
Target sequence in this assay (Q9UBL3 95-628, further chain): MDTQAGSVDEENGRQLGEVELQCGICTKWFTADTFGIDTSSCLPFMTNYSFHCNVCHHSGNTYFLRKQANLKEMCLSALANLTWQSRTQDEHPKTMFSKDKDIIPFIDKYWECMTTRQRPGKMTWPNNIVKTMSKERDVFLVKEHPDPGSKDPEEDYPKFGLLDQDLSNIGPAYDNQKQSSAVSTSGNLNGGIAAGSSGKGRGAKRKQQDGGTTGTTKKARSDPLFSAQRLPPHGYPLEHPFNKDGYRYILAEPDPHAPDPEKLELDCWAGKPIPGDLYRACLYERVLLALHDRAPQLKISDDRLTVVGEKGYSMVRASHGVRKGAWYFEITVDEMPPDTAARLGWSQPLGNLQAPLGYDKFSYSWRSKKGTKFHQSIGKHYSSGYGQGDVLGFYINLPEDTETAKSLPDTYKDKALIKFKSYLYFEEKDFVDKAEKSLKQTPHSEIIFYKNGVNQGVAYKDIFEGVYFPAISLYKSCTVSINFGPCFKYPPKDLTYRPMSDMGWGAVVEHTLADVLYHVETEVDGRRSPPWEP
Target sequence in this assay (Q9C005 whole entry, further chain, the tested form may be a part): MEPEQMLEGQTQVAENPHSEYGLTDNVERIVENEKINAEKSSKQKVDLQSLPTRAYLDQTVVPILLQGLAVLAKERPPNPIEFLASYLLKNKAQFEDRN
Target sequence in this assay (O14686 5361-5537): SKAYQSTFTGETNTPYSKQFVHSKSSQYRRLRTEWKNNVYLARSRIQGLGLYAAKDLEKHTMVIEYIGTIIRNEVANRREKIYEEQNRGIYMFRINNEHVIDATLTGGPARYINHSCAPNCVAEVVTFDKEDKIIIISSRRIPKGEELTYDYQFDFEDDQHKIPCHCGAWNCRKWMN

[5] = target: T2, hKMT2D SET domain (Homo sapiens, UniProt O14686); assay: WRAD2 titration: MTase-Glo steady-state substrate matrix experiments; type: biochemical; conditions: eq 1, read-out: Kd^(AdoMet)
T2 construct: expressing amino acids 5308-5537 of the hKMT2D catalytic SET domain; 6xHis + TEV site (N, cleaved yes); made in house; host or cells: KMT2D Win-SET: Sf21 (baculovirus); H3 peptides bought from Chinese Peptide Company
Procedure: as §1, §2
as §3, with “substrate. […]” for “substrate.”

[6] = target: T3, His-SET (5382–5537) + ASH2L (380-496-ISGRGS-539-598) + RbBP5 peptide (Homo sapiens, UniProt O14686); assay: SPR binding assays (steady-state affinity); conditions: minimal complex; 1:1 interaction model
T3 construct: made in house; RbBP5 peptide synthetic, Chinese Peptide Company
Procedure: Surface plasmon resonance experiments were performed using a T200 instrument (Cytiva) equipped with a research-grade NTA sensor S chip (Cytiva) at 20 °C. For immobilization, the instrument was primed with a buffer composed of 10 mM HEPES, pH 7.5, 150 mM NaCl, 0.5 mM TCEP, and 0.05% Tween 20. The NTA chip was conditioned with three 2 min injections of 50 mM NaOH/1 M NaCl and a 2 min injection of 250 mM EDTA. Protein and reference flow cells were then prepared by a 2 min injection of 1 mM NiCl2 and a 7 min injection of 0.2 M EDC/ 0.05 M NHS. Immediately, the protein (500 nM His-SET (5382–5537) + ASH2L (380-496-ISGRGS-539-598) + RbBP5 peptide in immobilization buffer) was injected over the measurement flow cell to the desired RU level, followed by deactivation with a 7 min injection of 1 M ethanolamine pH 8 of all flow cells. For binding measurements, the system was then primed in a running buffer consisting of 50 mM Tris pH 7.5, 150 mM NaCl, 1 mM TCEP, 1–2% DMSO, and 0.05% Tween 20. […] Data processing included solvent correction and blank subtraction. The steady-state data were analyzed using Biaevaluation/Insight Software 1.1 (GE Healthcare/Cytiva) using an implemented 1:1 interaction model.

[7] = target: T4, SET/Ash2L/RbBP5 minimal complex (Homo sapiens, UniProt O14686); assay: Substrate matrix experiment with the minimal complex, MTase-Glo; type: biochemical; conditions: read-out: Kd^(AdoMet)
T4 construct: 6xHis + TEV site (N); made in house; RbBP5 peptide synthetic, Chinese Peptide Company
Procedure: as §1
The ternary Bi–Bi model [drawing 1] 1 The Ping–Pong model [drawing 2] […]

[8] = target: hKMT2D SET domain (Win-SET protein that lost the Win motif by proteolysis) (human) (UniProt O14686)
[9] = target: hKMT2D SET domain (Win-SET protein that lost the Win motif by proteolysis) (human) (UniProt O14686); remark: listed apart in the source
[10] = varied substrate AdoMet, fixed substrate at 20× KM
[11] = varied substrate AdoMet, fixed substrate at KM
[12] = varied substrate H3_1–21, fixed substrate at KM

Sequence of hKMT2D SET domain (Win-SET protein that lost the Win motif by proteolysis) (human) (O14686 5362-5537): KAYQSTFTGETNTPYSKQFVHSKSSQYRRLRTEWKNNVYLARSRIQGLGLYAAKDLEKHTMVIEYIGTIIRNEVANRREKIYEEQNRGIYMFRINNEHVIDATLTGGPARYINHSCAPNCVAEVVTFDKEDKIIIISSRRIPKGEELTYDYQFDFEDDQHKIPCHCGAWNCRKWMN
T2 sequence (Q9UBL3 95-628): as the sequence (Q9UBL3 95-628, further chain) above
T2 sequence (Q9C005 whole entry, further chain, the tested form may be a part): as the sequence (Q9C005 whole entry, further chain, the tested form may be a part) above
T2 sequence (O14686 5361-5537): as the sequence (O14686 5361-5537) above
T2 sequence (Q15291 whole entry, further chain, the tested form may be a part): as the sequence (Q15291 whole entry, the tested form may be a part) above
Sequence of Ash2L (absent small or homoeotic 2-like), full length (Q9UBL3 whole entry): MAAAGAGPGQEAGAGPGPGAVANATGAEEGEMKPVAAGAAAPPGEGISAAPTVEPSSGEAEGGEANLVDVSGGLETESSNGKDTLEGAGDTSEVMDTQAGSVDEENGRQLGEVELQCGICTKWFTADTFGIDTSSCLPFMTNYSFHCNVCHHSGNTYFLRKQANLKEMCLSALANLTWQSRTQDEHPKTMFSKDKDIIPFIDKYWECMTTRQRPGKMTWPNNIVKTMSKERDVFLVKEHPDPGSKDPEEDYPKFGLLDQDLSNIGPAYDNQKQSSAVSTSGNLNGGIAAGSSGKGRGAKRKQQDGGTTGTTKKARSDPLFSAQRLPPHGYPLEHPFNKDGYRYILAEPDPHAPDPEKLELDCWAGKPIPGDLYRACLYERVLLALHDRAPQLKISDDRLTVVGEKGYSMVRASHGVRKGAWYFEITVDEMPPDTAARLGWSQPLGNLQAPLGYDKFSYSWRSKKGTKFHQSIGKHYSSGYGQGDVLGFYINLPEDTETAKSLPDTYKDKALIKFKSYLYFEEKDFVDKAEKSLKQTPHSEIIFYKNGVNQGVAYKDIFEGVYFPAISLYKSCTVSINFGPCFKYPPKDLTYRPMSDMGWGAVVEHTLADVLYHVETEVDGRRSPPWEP
T3 sequence (O14686 5382-5537): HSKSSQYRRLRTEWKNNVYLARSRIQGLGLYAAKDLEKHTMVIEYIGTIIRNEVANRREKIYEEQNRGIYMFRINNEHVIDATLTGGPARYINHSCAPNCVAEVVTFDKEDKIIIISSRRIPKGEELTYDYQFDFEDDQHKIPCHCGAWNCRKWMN
T4 sequence (O14686 5382-5537, one chain of several): as the sequence (O14686 5382-5537) above
Sequence of RbBP5 (retinoblastoma-binding protein), full length (Q15291 whole entry): as the sequence (Q15291 whole entry, the tested form may be a part) above

Compound: hKMT2D SET domain (Homo sapiens)
Km ([1]; other: 25 nM WRAD2, Ping–Pong model eq 2, substrate H3_1–21): 5.10 ± 0.32 µM
Km ([1]; other: [WRAD2] 0 nM, [SET] 125 nM, eq 1): 5.38 ± 1.0 µM
Km ([1]; other: [WRAD2] 0.125 nM, [SET] 125 nM, eq 1): 5.48 ± 1.25 µM
Km ([1]; other: [WRAD2] 0.5 nM, [SET] 125 nM, eq 1): 3.61 ± 0.51 µM
Km ([1]; other: [WRAD2] 1 nM, [SET] 125 nM, eq 1): 4.55 ± 0.62 µM
Km ([1]; other: [WRAD2] 2 nM, [SET] 125 nM, eq 1): 4.18 ± 0.50 µM
Km ([1]; other: [WRAD2] 4 nM, [SET] 125 nM, eq 1): 2.36 ± 0.28 µM
Km ([1]; other: [WRAD2] 6.25 nM, [SET] 30 nM, eq 1): 3.07 ± 0.16 µM
Km ([1]; other: [WRAD2] 10 nM, [SET] 30 nM, eq 1): 3.89 ± 0.33 µM
Km ([1]; other: [WRAD2] 15 nM, [SET] 30 nM, eq 1): 4.77 ± 0.22 µM
Km ([1]; other: [WRAD2] 25 nM, [SET] 30 nM, eq 1, substrate H3_1–21): 4.65 ± 0.34 µM
Km ([1]; other: [WRAD2] 125 nM, [SET] 30 nM, eq 1): 4.71 ± 0.25 µM
Km ([1]; other: [WRAD2] […], [SET] 125 nM, eq 1): 6.28 ± 0.65 µM

Compound: SET/WRAD2 complex (Homo sapiens)
Km ([2]; substrate Me1H3_1–21): 5.22 ± 0.32 µM
Km ([2]; substrate Me2H3_1–21): 3.48 ± 0.36 µM

Compound: Nc1ncnc2c1ncn2[C@@H]1O[C@H](CSCC[C@H](N)C(=O)O)[C@@H](O)[C@H]1O [AdoHcy, S-adenosyl-L-homocysteine]
Ki [3, 10]: 2290 ± 200 nM
inhibition pattern [3, 10]: C
α (mixed inhibition model) [3, 10]: 6.8
Ki [3, 11]: 4950 ± 620 nM
inhibition pattern [3, 11]: C
α (mixed inhibition model) [3, 11]: >1000
inhibition pattern ([3]; varied substrate H3_1–21, fixed substrate at 20× KM): no inhibition
Ki [3, 12]: 5380 ± 410 nM
inhibition pattern [3, 12]: NC
α (mixed inhibition model) [3, 12]: 0.56

Kd ([4]; eq 1, substrate Me1H3_1–21, read-out: Kd^(AdoMet)): 3760 ± 490 nM
Kd ([4]; eq 1, substrate Me2H3_1–21, read-out: Kd^(AdoMet)): 40 nM
Kd ([5]; [WRAD2] 0 nM, [SET] 125 nM): 5930 ± 1200 nM
Kd ([5]; [WRAD2] 0.125 nM, [SET] 125 nM): 4990 ± 1500 nM
Kd ([5]; [WRAD2] 0.5 nM, [SET] 125 nM): 2930 ± 600 nM
Kd ([5]; [WRAD2] 1 nM, [SET] 125 nM): 1610 ± 580 nM
Kd ([5]; [WRAD2] 2 nM, [SET] 125 nM): 610 ± 360 nM
Kd ([5]; [WRAD2] 4 nM, [SET] 125 nM): 650 ± 380 nM
Kd ([5]; [WRAD2] 6.25 nM, [SET] 30 nM): 1540 ± 360 nM
Kd ([5]; [WRAD2] 10 nM, [SET] 30 nM): 1420 ± 560 nM
Kd ([5]; [WRAD2] 15 nM, [SET] 30 nM): 990 ± 300 nM
Kd ([5]; [WRAD2] 25 nM, [SET] 30 nM, substrate H3_1–21): 850 ± 480 nM
Kd ([5]; [WRAD2] 125 nM, [SET] 30 nM): 540 ± 310 nM
Kd ([5]; [WRAD2] […], [SET] 125 nM): 5020 ± 680 nM
Kd [6]: 9000 ± 2000 nM
Kd [7]: 7630 ± 460 nM
Compound: C[S+](CC[C@H](N)C(=O)[O-])C[C@H]1O[C@@H](n2cnc3c(N)ncnc32)[C@H](O)[C@@H]1O (stereo partly drawn) [AdoMet, S-adenosyl-L-methionine]

Kd assigned to RbBP5 from the WRAD2 titration of kcat (steady-state kinetics) [8]: 12 nM
Compound: RbBP5 (retinoblastoma-binding protein), full length (from UniProt Q15291 1-538) (natural protein)

Compound: Nc1ncnc2c1ncn2[C@@H]1O[C@H](C[C@@H](N)CC[C@H](N)C(=O)O)[C@@H](O)[C@H]1O [sinefungin]
Ki [3, 11]: 11000 ± 460 nM
inhibition pattern [3, 11]: C
α (mixed inhibition model) [3, 11]: 21.1
Ki [3, 12]: 10300 ± 790 nM
inhibition pattern [3, 12]: UC
α (mixed inhibition model) [3, 12]: 0.16

H3 1-21 affinity (KM) of the SET domain with Ash2L alone, 1:1, 5 μM AdoMet [9]: 2 fold
Kd assigned to Ash2L from the WRAD2 titration of H3 1-21 affinity (steady-state kinetics) [8]: 4 nM
Compound: Ash2L (absent small or homoeotic 2-like), full length (from UniProt Q9UBL3 1-628) (natural protein)
